Assay results taken from patent US11434242B2, “Dopamine-b-hydroxylase inhibitors” (BIAL-PORTELA & Cª, S.A., priority 2017, dated 2022).

Molecular target: T1, Dopamine beta hydroxylase (Homo sapiens, UniProt P09172)
T1 construct: 125 μl of plasma; tissue Instituto Português do Sangue Transplantação; host or cells: human plasma from healthy donors
T1 sequence (P09172 40-617 limits assumed): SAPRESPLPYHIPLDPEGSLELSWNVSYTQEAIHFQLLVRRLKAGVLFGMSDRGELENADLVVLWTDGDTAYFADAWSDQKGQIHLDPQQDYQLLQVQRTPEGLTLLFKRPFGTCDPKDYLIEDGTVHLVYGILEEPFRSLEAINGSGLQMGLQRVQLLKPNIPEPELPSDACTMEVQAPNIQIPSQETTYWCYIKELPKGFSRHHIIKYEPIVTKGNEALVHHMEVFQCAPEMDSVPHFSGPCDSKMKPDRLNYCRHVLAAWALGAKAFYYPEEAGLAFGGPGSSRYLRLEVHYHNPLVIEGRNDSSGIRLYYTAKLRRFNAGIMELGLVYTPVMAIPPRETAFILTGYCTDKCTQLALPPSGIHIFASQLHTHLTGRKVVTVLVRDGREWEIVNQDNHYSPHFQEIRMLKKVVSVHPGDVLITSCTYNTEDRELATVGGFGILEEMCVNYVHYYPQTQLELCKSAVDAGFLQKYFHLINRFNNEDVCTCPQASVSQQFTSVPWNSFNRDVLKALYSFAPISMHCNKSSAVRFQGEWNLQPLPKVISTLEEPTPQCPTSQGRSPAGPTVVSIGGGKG
Experiment: Dopamine beta hydroxylase activity in human plasma
Format: biochemical
Settings: for Plasma (0.01 μM), activity in % of control: inhibitor 0.01 μM; for Plasma (0.1 μM), activity in % of control: inhibitor 0.1 μM
Outline: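 Healthy-donor human plasma pre-incubated 10 min at 37° C with compound at final 10, 100 or 1000 nM in pH 5.0 acetate buffer with ascorbate, fumarate, pargyline, N-ethylmaleimide, catalase and copper sulfate. Tyramine substrate then added for 45 min; octopamine formed was isolated by SCX cartridge, periodate-converted and read at 330 nm; activity given as % control.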

Plasma (0.01 μM), activity in % of control	Plasma (0.1 μM), activity in % of control	Plasma (1 μM), activity in % of control (inhibitor 1 μM)	SMILES
74.3 % of control	14.8 % of control	–	O=C(Cc1[nH]c(=S)n2c1C[C@@H](c1c(F)ccc(Br)c1F)C2)N1CCC2(CCOC2)CC1 [Example 165, (S)-2-(6-(3-bromo-2,6-difluorophenyl)-3-thioxo-2,5,6,7-tetrahydro-3H-pyrrolo[1,2-c]imidazol-1-yl)-1-(2-oxa-8-azaspiro[4.5]decan-8-yl)ethan-1-one]
78.1 % of control	34.2 % of control	–	Cn1c(CC(=O)NCC2CCOCC2)c2n(c1=S)C[C@H](c1c(F)ccc(F)c1F)C2 [Example 427, (S)-2-(2-methyl-3-thioxo-6-(2,3,6-trifluorophenyl)-2,5,6,7-tetrahydro-3H-pyrrolo[1,2-c]imidazol-1-yl)-N-((tetrahydro-2H-pyran-4-yl)methyl)acetamide]
–	58.3 % of control	11.9 % of control	CCOC(=O)Cc1[nH]c(=S)n2c1C[C@H](c1c(F)c(F)cc(F)c1F)C2 [Example 63, Ethyl (R)-2-(6-(2,3,5,6-tetrafluorophenyl)-3-thioxo-2,5,6,7-tetrahydro-3H-pyrrolo[1,2-c]imidazol-1-yl)acetate]
109.6 % of control	74.9 % of control	–	Cl.Cn1cc(CNCCc2c3n(c(=S)n2C)C[C@@]2(c4cc(Cl)ccc4F)C[C@@H]32)cn1 [Example 346, (5aS,6aR)-5a-(5-chloro-2-fluorophenyl)-2-methyl-1-(2-(((1-methyl-1H-pyrazol-4-yl)methyl)amino)ethyl)-5,5a,6,6a-tetrahydrocyclopropa[3,4]pyrrolo[1,2-c]imidazole-3(2H)-thione Hydrochloride]
90.3 % of control	31.1 % of control	–	Cn1c(CC(=O)N2CCNCC2)c2n(c1=S)C[C@@]1(c3cc(Cl)ccc3F)C[C@@H]21 [Example 320, 2-((5aS,6aR)-5a-(5-chloro-2-fluorophenyl)-2-methyl-3-thioxo-2,3,5,5a,6,6a-hexahydrocyclopropa[3,4]pyrrolo[1,2-c]imidazol-1-yl)-1-(piperazin-1-yl)ethan-1-one]
56.9 % of control	9.2 % of control	–	Cn1c(CC(=O)NC2COC2)c2n(c1=S)C[C@@]1(c3cc(Cl)ccc3F)C[C@@H]21 [Example 433, 2-((5aS,6aR)-5a-(5-chloro-2-fluorophenyl)-2-methyl-3-thioxo-2,3,5,5a,6,6a-hexahydrocyclopropa[3,4]pyrrolo[1,2-c]imidazol-1-yl)-N-(oxetan-3-yl)acetamide]
76.9 % of control	18.2 % of control	–	O=C(CCc1[nH]c(=S)n2c1C[C@H](c1c(F)c(F)cc(F)c1F)C2)N1CCOCC1 [Example 205, (R)-1-morpholino-3-(6-(2,3,5,6-tetrafluorophenyl)-3-thioxo-2,5,6,7-tetrahydro-3H-pyrrolo[1,2-c]imidazol-1-yl)propan-1-one]
92.1 % of control	47.6 % of control	–	Cn1c(CC(=O)NC2COC2)c2n(c1=S)C[C@@H](c1c(F)c(F)cc(F)c1F)C2 [Example 394, (R)-2-(2-methyl-6-(2,3,5,6-tetrafluorophenyl)-3-thioxo-2,5,6,7-tetrahydro-3H-pyrrolo[1,2-c]imidazol-1-yl)-N-(oxetan-3-yl)acetamide]
79.7 % of control	43.7 % of control	–	Cn1c(CC(=O)NC2COC2)c2n(c1=S)C[C@H](c1c(F)ccc(F)c1F)C2 [Example 432, (S)-2-(2-methyl-3-thioxo-6-(2,3,6-trifluorophenyl)-2,5,6,7-tetrahydro-3H-pyrrolo[1,2-c]imidazol-1-yl)-N-(oxetan-3-yl)acetamide]
